Results on three compounds are retold here after PMC8906060 (Antiviral Research, 2022).

As a reminder, the IC50 is the midpoint of a concentration-inhibition curve. A word on the EC50: it is the concentration giving half of the maximal effect.

One experiment concerns the target SARS-CoV-2 3CLpro (Severe acute respiratory syndrome coronavirus 2, UniProt P0DTD1). In kind it is biochemical. The settings on record: read-out: 3CLpro IC50.
The target of a further experiment is 3CLpro (Severe acute respiratory syndrome coronavirus 2, UniProt P0DTD1). In kind it is biochemical, SARS-CoV-2.
The next experiment deals with SARS-CoV-2. The experiment is described as follows: microbe, parasite or virus in culture. The settings on record: Severe acute respiratory syndrome coronavirus 2. In kind it is cell-based.
The next experiment relates to COVID-19. The settings on record: COVID-19 patients, ref Beigel et al., 2020, cited from earlier work.

Molecules are shown by their SMILES.

Turning to `COC(=O)c1c(C)[nH]c(C(=O)COn2nnc3ccc(S(=O)(=O)N(C)C)cc32)c1C` [Compound 12], the half-maximal inhibitory concentration (IC50) was 1.32 µM at SARS-CoV-2 3CLpro and 0.35 µM on 3CLpro (read-out: FRET IC50).
Consider `CCC(CC)COC(=O)[C@H](C)N[P@](=O)(OC[C@H]1O[C@@](C#N)(c2ccc3c(N)ncnn23)[C@H](O)[C@@H]1O)Oc1ccccc1` [Remdesivir], for which the 50% effective concentration (EC50) in the experiment on SARS-CoV-2 is 1.84 µM. Besides, the recovery with COVID-19 (reduced from 15 days) is given as 11 days. For the same compound, the effect on mortality entry with COVID-19 is “no significant effect”.
As for `COc1ccc(-c2nc(NC(=O)c3ccc(C)c(F)c3)n[nH]2)cc1OC` [Compound 30], the “FRET IC50” value on 3CLpro is given as “high fluorescent signals”.
